Laboratory results from the NIST ThermoML archive (doi:10.1016/j.jct.2011.02.012).
Numbers after ± are expanded uncertainties.

Assay: activity coefficient (dimensionless); of the first substance listed, at infinite dilution; xn = mol fraction of the nth substance listed
Settings: Liquid, Chromatography, x1 = 0

SMILES | activity coefficient (298.15 K) | activity coefficient (308.15 K) | activity coefficient (318.15 K) | activity coefficient (328.15 K) | activity coefficient (338.15 K) | activity coefficient (348.15 K) | activity coefficient (358.15 K)
C=CCCCC [hex-1-ene] + CCn1cc[n+](C)c1.N#C[B-](C#N)(C#N)C#N | 14.4 ± 1 | 13.5 ± 0.9 | 12.9 ± 0.9 | 12.2 ± 0.8 | 11.6 ± 0.8 | 11.2 ± 0.8 | 10.6 ± 0.7
COC(C)(C)C [2-methoxy-2-methylpropane] + CCn1cc[n+](C)c1.N#C[B-](C#N)(C#N)C#N | 2.82 ± 0.19 | 2.86 ± 0.19 | 2.9 ± 0.2 | 2.94 ± 0.2 | 2.97 ± 0.2 | 3.01 ± 0.2 | 3.04 ± 0.21
Cc1ccccc1C [1,2-dimethylbenzene] + CCn1cc[n+](C)c1.N#C[B-](C#N)(C#N)C#N | 2.17 ± 0.15 | 2.18 ± 0.15 | 2.2 ± 0.15 | 2.21 ± 0.15 | 2.22 ± 0.15 | 2.24 ± 0.15 | 2.25 ± 0.15
CC1CCCCC1 [methylcyclohexane] + CCn1cc[n+](C)c1.N#C[B-](C#N)(C#N)C#N | 24.9 ± 1.7 | 22.7 ± 1.6 | 21.1 ± 1.4 | 19.4 ± 1.3 | 18 ± 1 | 16.9 ± 1.2 | 15.9 ± 1.1
CCCCCCCCC [nonane] + CCn1cc[n+](C)c1.N#C[B-](C#N)(C#N)C#N | 131 ± 9 | 114 ± 8 | 102 ± 7 | 90.2 ± 6.2 | 81.1 ± 5.6 | 73.2 ± 5 | 66.3 ± 4.5
Cc1ccc(C)cc1 [1,4-dimethylbenzene] + CCn1cc[n+](C)c1.N#C[B-](C#N)(C#N)C#N | – | – | 2.45 ± 0.17 | 2.48 ± 0.17 | 2.5 ± 0.17 | 2.52 ± 0.17 | 2.54 ± 0.17
CCC(C)(C)OC [2-methoxy-2-methylbutane] + CCn1cc[n+](C)c1.N#C[B-](C#N)(C#N)C#N | 4.15 ± 0.28 | 4.19 ± 0.29 | 4.22 ± 0.29 | 4.25 ± 0.29 | 4.28 ± 0.29 | 4.3 ± 0.29 | 4.32 ± 0.29
Cc1cccc(C)c1 [1,3-dimethylbenzene] + CCn1cc[n+](C)c1.N#C[B-](C#N)(C#N)C#N | – | 2.56 ± 0.17 | 2.58 ± 0.18 | 2.6 ± 0.18 | 2.61 ± 0.18 | 2.63 ± 0.18 | 2.64 ± 0.18
CCOCC [diethyl ether] + CCn1cc[n+](C)c1.N#C[B-](C#N)(C#N)C#N | 2.71 ± 0.18 | 2.72 ± 0.19 | 2.73 ± 0.19 | 2.74 ± 0.19 | 2.75 ± 0.19 | 2.76 ± 0.19 | 2.77 ± 0.19
C=CCCCCC [1-heptene] + CCn1cc[n+](C)c1.N#C[B-](C#N)(C#N)C#N | 22 ± 1.5 | 20.4 ± 1.4 | 19.3 ± 1.3 | 18.3 ± 1.3 | 17.3 ± 1.2 | 16.6 ± 1.1 | 15.7 ± 1.1
C1CCOC1 [tetrahydrofuran] + CCn1cc[n+](C)c1.N#C[B-](C#N)(C#N)C#N | 0.686 ± 0.046 | 0.707 ± 0.047 | 0.726 ± 0.048 | 0.737 ± 0.049 | 0.753 ± 0.05 | 0.775 ± 0.051 | 0.789 ± 0.051
CC(C)=O [acetone] + CCn1cc[n+](C)c1.N#C[B-](C#N)(C#N)C#N | – | 0.443 ± 0.036 | 0.454 ± 0.036 | 0.466 ± 0.036 | 0.475 ± 0.037 | 0.488 ± 0.037 | 0.43 ± 0.035
C#CCCCCCC [1-octyne] + CCn1cc[n+](C)c1.N#C[B-](C#N)(C#N)C#N | 8.66 ± 0.59 | 8.48 ± 0.58 | 8.31 ± 0.57 | 8.15 ± 0.56 | 7.99 ± 0.54 | 7.86 ± 0.54 | 7.73 ± 0.53
Cc1ccccc1 [toluene] + CCn1cc[n+](C)c1.N#C[B-](C#N)(C#N)C#N | 1.65 ± 0.11 | 1.67 ± 0.11 | 1.69 ± 0.11 | 1.71 ± 0.11 | 1.73 ± 0.12 | 1.75 ± 0.12 | 1.76 ± 0.12

Now from value to compound:

activity coefficient (298.15 K) | activity coefficient (308.15 K) | activity coefficient (318.15 K) | activity coefficient (328.15 K) | activity coefficient (338.15 K) | activity coefficient (348.15 K) | activity coefficient (358.15 K) | SMILES
9.24 ± 0.63 | 8.83 ± 0.6 | 8.56 ± 0.58 | 8.24 ± 0.56 | 7.97 ± 0.54 | 7.71 ± 0.53 | 7.52 ± 0.51 | C=CCCC [1-pentene] + CCn1cc[n+](C)c1.N#C[B-](C#N)(C#N)C#N
2.01 ± 0.14 | 1.81 ± 0.12 | 1.65 ± 0.11 | 1.5 ± 0.1 | 1.39 ± 0.09 | 1.3 ± 0.08 | 1.21 ± 0.08 | CCCO [propan-1-ol] + CCn1cc[n+](C)c1.N#C[B-](C#N)(C#N)C#N
1.13 ± 0.07 | 1.15 ± 0.07 | 1.17 ± 0.07 | 1.18 ± 0.08 | 1.19 ± 0.08 | 1.2 ± 0.08 | 1.21 ± 0.08 | c1ccccc1 [benzene] + CCn1cc[n+](C)c1.N#C[B-](C#N)(C#N)C#N
29.7 ± 2 | 26.6 ± 1.8 | 24.7 ± 1.7 | 22.5 ± 1.5 | 20.8 ± 1.4 | 19.2 ± 1.3 | 17.9 ± 1.2 | C1CCCCCCC1 [cyclooctane] + CCn1cc[n+](C)c1.N#C[B-](C#N)(C#N)C#N
5.74 ± 0.39 | 5.66 ± 0.39 | 5.58 ± 0.38 | 5.51 ± 0.38 | 5.45 ± 0.37 | 5.39 ± 0.37 | 5.33 ± 0.36 | C#CCCCCC [1-heptyne] + CCn1cc[n+](C)c1.N#C[B-](C#N)(C#N)C#N
1.1 ± 0.07 | 1.02 ± 0.06 | 0.948 ± 0.06 | 0.886 ± 0.056 | 0.835 ± 0.054 | 0.788 ± 0.051 | 0.748 ± 0.049 | CO [methanol] + CCn1cc[n+](C)c1.N#C[B-](C#N)(C#N)C#N
203 ± 14 | 177 ± 12 | 156 ± 11 | 137 ± 9 | 122 ± 8 | 108 ± 7 | 96.7 ± 6.6 | CCCCCCCCCC [decane] + CCn1cc[n+](C)c1.N#C[B-](C#N)(C#N)C#N
1.58 ± 0.1 | 1.43 ± 0.09 | 1.32 ± 0.09 | 1.21 ± 0.08 | 1.13 ± 0.07 | 1.05 ± 0.07 | 0.986 ± 0.062 | CCO [ethanol] + CCn1cc[n+](C)c1.N#C[B-](C#N)(C#N)C#N
33.8 ± 2.3 | 30.7 ± 2.1 | 28.9 ± 2 | 26.3 ± 1.8 | 24.5 ± 1.7 | 23.1 ± 1.6 | 21.8 ± 1.5 | CCCCCC [hexane] + CCn1cc[n+](C)c1.N#C[B-](C#N)(C#N)C#N
60.3 ± 4.1 | 54.3 ± 3.7 | 50.4 ± 3.5 | 46.4 ± 3.2 | 42.3 ± 2.9 | 39.5 ± 2.7 | 36.7 ± 2.5 | CC(C)CC(C)(C)C [2,2,4-trimethylpentane] + CCn1cc[n+](C)c1.N#C[B-](C#N)(C#N)C#N
